Results: patent publication US20090048258A1, “Amide Compound” (priority 2005, published 2009)

The compounds below were run against T1, Human DGAT1 (Homo sapiens, UniProt O75907) (assay: DGAT inhibitory activity: [14C]-triglyceride synthesis by DGAT1 high expression Sf9 microsome). Details: Table 1, 25 μM dioleoylglycerol, 25 μM [14C]-Oleoyl-CoA, 32° C., 15 min, read-out: DGAT inhibitory activity (according to IC50).
T1 construct: my translation of the primer: M-G-DYKDDDD-GDRGSSRRR) (N); made in house; host or cells: Sf9 insect cells (recombinant baculovirus BAC-DGAT1, pFASTBAC1); microsome fraction
T1 sequence (O75907 1-488): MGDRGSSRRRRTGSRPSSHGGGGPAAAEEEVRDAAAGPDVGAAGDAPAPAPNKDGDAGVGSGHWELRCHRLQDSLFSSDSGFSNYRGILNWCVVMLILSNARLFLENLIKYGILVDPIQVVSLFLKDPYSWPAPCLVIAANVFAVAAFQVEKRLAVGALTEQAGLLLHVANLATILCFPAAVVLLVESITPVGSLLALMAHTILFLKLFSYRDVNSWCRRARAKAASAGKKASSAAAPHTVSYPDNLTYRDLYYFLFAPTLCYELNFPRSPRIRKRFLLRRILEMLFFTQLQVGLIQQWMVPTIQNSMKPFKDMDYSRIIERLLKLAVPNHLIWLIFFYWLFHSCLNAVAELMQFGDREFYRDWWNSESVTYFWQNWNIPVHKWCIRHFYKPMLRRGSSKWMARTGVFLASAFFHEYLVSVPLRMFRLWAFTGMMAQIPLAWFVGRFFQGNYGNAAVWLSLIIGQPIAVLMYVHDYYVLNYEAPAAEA
Format: biochemical
Method in brief: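 DGAT1 was overexpressed from recombinant baculovirus in Sf9 cells, and microsomes from these cells were the enzyme source. Reactions ran in 100 mM Tris-HCl pH 7.5, 250 mM sucrose, 150 mM MgCl2 and 0.01% BSA. [14C]-triglyceride was extracted into chloroform, separated by TLC and quantified by imaging plate, with inhibition calculated against control and blank (no microsome) counts.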
For CCOc1cccc(C(=O)CCC(=O)Nc2cc(-c3ccccc3)c(Cc3ccccc3)s2)c1 [Example 45, N-(5-benzyl-4-phenyl-2-thienyl)-4-(3-ethoxyphenyl)-4-oxobutanamide], the IC50 was 50 to 500 nM.
COc1ccc(C(=O)CCC(=O)Nc2cc(-c3ccccc3)c(Cc3ccccc3)s2)cc1OC [Example 48, N-(5-benzyl-4-phenyl-2-thienyl)-4-(3,4-dimethoxyphenyl)-4-oxobutanamide] gave an IC50 of 10 to 50 nM.
Compound CCOc1ccc(C(=O)CCC(=O)Nc2cc(-c3ccc(F)cc3)cc(-c3ccccc3)n2)cc1OCC [Example 43, 4-(3,4-diethoxyphenyl)-N-(4-(4-fluorophenyl)-6-phenylpyridin-2-yl)-4-oxobutanamide] has an IC50 of 50 to 500 nM.
In the case of CCOC(=O)COc1ccc(C(=O)CCC(=O)Nc2nc(-c3ccccc3)c(Cc3ccccc3)s2)cc1 [Example 37], the IC50 is reported as 50 to 500 nM.
With CCOc1ccc(C(=O)CCC(=O)Nc2cc(OCc3ccccc3)cc(-c3ccccc3)n2)cc1OCC [Example 42, 4-(3,4-diethoxyphenyl)-N-(4-(benzyloxy)-6-phenylpyridin-2-yl)-4-oxobutanamide] the IC50 was 50 to 500 nM.
CCOC(=O)CCc1ccc(NC(=O)CCC(=O)c2ccc(OCC)c(OCC)c2)cc1-c1ccccc1 [Example 9, ethyl 3-(5-{[4-(3,4-diethoxyphenyl)-4-oxobutanoyl]amino}biphenyl-2-yl)propanoate] gave an IC50 of 50 to 500 nM.
Compound CCOc1ccc(C(=O)CCC(=O)Nc2cc(-c3ccc(O)cc3)c3ccccc3n2)cc1OCC [Example 22, 4-(3,4-diethoxyphenyl)-N-[4-(4-hydroxyphenyl)quinolin-2-yl]-4-oxobutanamide] has an IC50 of no more than 10 nM.
In the case of CCOc1ccc(C(=O)CCC(=O)Nc2cc(-c3ccc(OCC(=O)O)cc3)c3ccccc3n2)cc1OCC [Example 23, [4-(2-{[4-(3,4-diethoxyphenyl)-4-oxobutanoyl]amino}quinolin-4-yl)phenoxy]acetic acid], the IC50 is reported as 500 to 10000 nM.
CCOc1ccc(C(=O)CCC(=O)Nc2ccc(CCC(=O)O)c(-c3ccccc3)c2)cc1OCC [Example 10, 3-(5-{[4-(3,4-diethoxyphenyl)-4-oxobutanoyl]amino}biphenyl-2-yl)propanoic acid] was tested, and the IC50 was 500 to 10000 nM.
Work on CCOc1ccc(C(=O)CCC(=O)Nc2cc(-c3ccccc3)c(CC3CCCCC3)s2)cc1OCC [Example 46, N-(5-(cyclohexylmethyl)-4-phenyl-2-thienyl)-4-(3,4-diethoxyphenyl)-4-oxobutanamide] yielded an IC50 of 50 to 500 nM.
For CCOc1ccc(C(=O)CCC(=O)Nc2cc(-c3ccccc3)c(Cc3ccccc3)s2)cc1 [Example 44, N-(5-benzyl-4-phenyl-2-thienyl)-4-(4-ethoxyphenyl)-4-oxobutanamide], the IC50 was 50 to 500 nM.
With CCOc1cccc(C(=O)CCC(=O)Nc2nc(-c3ccccc3)c(Cc3ccccc3)s2)c1 [Example 5, N-(5-benzyl-4-phenyl-1,3-thiazol-2-yl)-4-(3-ethoxyphenyl)-4-oxobutanamide] the IC50 was no more than 10 nM.
O=C(CCC(=O)c1ccccc1)Nc1nc(-c2ccccc2)c(Cc2ccccc2)s1 [Example 2, N-(5-benzyl-4-phenyl-1,3-thiazol-2-yl)-4-oxo-4-phenylbutanamide] was tested, and the IC50 was 50 to 500 nM.
CCOc1cc(C)c(C(=O)CCC(=O)Nc2cc(-c3ccccc3)c(Cc3ccccc3)s2)cc1OCC [Example 50, N-(5-benzyl-4-phenyl-2-thienyl) -4-(4,5-diethoxy-2-methylphenyl)-4-oxobutanamide] was tested, and the IC50 was 10 to 50 nM.
Work on CCOc1ccc(C(=O)CCC(=O)Nc2nc(-c3ccccc3)c(Cc3ccccc3)s2)cc1Cl [Example 36, N-(5-benzyl-4-phenyl-1,3-thiazol-2-yl)-4-(3-chloro-4-ethoxyphenyl)-4-oxobutanamide] yielded an IC50 of no more than 10 nM.
CCCc1ccc(C(=O)CCC(=O)Nc2nc(-c3ccccc3)c(Cc3ccccc3)s2)cc1 [Example 26, N-(5-benzyl-4-phenyl-1,3-thiazol-2-yl)-4-oxo-4-(4-propylphenyl)butanamide] was tested, and the IC50 was 50 to 500 nM.
For CCOc1ccc(C(=O)CCC(=O)Nc2cc(-c3ccccc3)cc(-c3ccccc3)n2)cc1OCC [Example 11, 4-(3,4-diethoxyphenyl)-N-(4,6-diphenylpyridin-2-yl)-4-oxobutanamide], the IC50 was 10 to 50 nM.

Same assay, conditions: Table 2, 25 μM dioleoylglycerol, 25 μM [14C]-Oleoyl-CoA, 32° C., 15 min, read-out: DGAT inhibitory activity (according to IC50)
Compound O=C(CCC(=O)c1ccc2c(c1)CCO2)Nc1cc(-c2ccncc2)cc(-c2ccccc2)n1 [Example 116, 4-(2,3-dihydro-1-benzofuran-5-yl)-4-oxo-N-(6-phenyl-4,4′-bipyridin-2-yl)butanamide] has an IC50 of 500 to 10000 nM.
Compound N#CCc1cccc(-c2cc(NC(=O)CCC(=O)c3ccc4c(c3)CCO4)nc(-c3ccccc3)c2)c1 [Example 164, N-{4-[3-(cyanomethyl)phenyl]-6-phenylpyridin-2-yl}-4-(2,3-dihydro-1-benzofuran-5-yl)-4-oxobutanamide] has an IC50 of 10 to 50 nM.
Work on CCOc1ccc(C(=O)CCC(=O)Nc2cc(-c3ccc(/C=C/C(=O)OC)cc3)cc(-c3ccccc3)n2)cc1OCC [Example 127, methyl (2E)-3-[4-(2-{[4-(3,4-diethoxyphenyl)-4-oxobutanoyl]amino}-6-phenylpyridin-4-yl)phenyl]acrylate] yielded an IC50 of 500 to 10000 nM.
For CN(C)c1ccc(-c2cc(NC(=O)CCC(=O)c3ccc4c(c3)CCO4)nc(-c3ccccc3)c2)cc1 [Example 162, 4-(2,3-dihydro-1-benzofuran-5-yl)-N-{4-[4-(dimethylamino)phenyl]-6-phenylpyridin-2-yl}-4-oxobutanamide], the IC50 was 50 to 500 nM.
With CCOc1ccc(C(=O)CCC(=O)Nc2cc(-c3cc(C)c(O)c(C)c3)cc(-c3ccccc3)n2)cc1OCC [Example 151, 4-(3,4-diethoxyphenyl)-N-[4-(4-hydroxy-3,5-dimethylphenyl)-6-phenylpyridin-2-yl]-4-oxobutanamide] the IC50 was 10 to 50 nM.
Compound O=C(CCC(=O)c1ccc2c(c1)CCO2)Nc1cc(-c2ccccc2C(=O)O)cc(-c2ccccc2)n1 [Example 180, 2-(2-{[4-(2,3-dihydro-1-benzofuran-5-yl)-4-oxobutanoyl]amino}-6-phenylpyridin-4-yl)benzoic acid] has an IC50 of 500 to 10000 nM.
CCOc1ccc(C(=O)CCC(=O)Nc2cc(-c3ccc(CN4CCOCC4)cc3)cc(-c3ccccc3)n2)cc1OCC [Example 130, 4-(3,4-diethoxyphenyl)-N-{4-[4-(morpholin-4-ylmethyl)phenyl]-6-phenylpyridin-2-yl}-4-oxobutanamide] gave an IC50 of 500 to 10000 nM.
Compound CC(=O)c1cccc(-c2cc(NC(=O)CCC(=O)c3ccc4c(c3)CCO4)nc(-c3ccccc3)c2)c1 [Example 171, N-[4-(3-acetylphenyl)-6-phenylpyridin-2-yl]-4-(2,3-dihydro-1-benzofuran-5-yl)-4-oxobutanamide] has an IC50 of 50 to 500 nM.
CCOc1ccc(C(=O)CCC(=O)Nc2cc(-c3ccc(OCCN)cc3)c3ccccc3n2)cc1OCC [Example 94, N-{4-[4-(2-aminoethoxy)phenyl]quinolin-2-yl}-4-(3,4-diethoxyphenyl)-4-oxobutanamide] gave an IC50 of 50 to 500 nM.
CCOc1ccc(C(=O)CCC(=O)Nc2cc(-c3cccc(O)c3)cc(-c3ccccc3)n2)cc1OCC [Example 134, 4-(3,4-diethoxyphenyl)-N-[4-(3-hydroxyphenyl)-6-phenylpyridin-2-yl]-4-oxobutanamide] gave an IC50 of 10 to 50 nM.
CCOc1ccc(C(=O)CCC(=O)Nc2cc3ccccc3c(N3CCCCC3)n2)cc1OCC [Example 85, 4-(3,4-diethoxyphenyl)-4-oxo-N-[1-(piperidin-1-yl)isoquinolin-3-yl]butanamide] was tested, and the IC50 was 500 to 10000 nM.
O=C(CCC(=O)c1ccc2c(c1)OCCCO2)Nc1nc(-c2ccccc2)c(Cc2ccccc2)s1 [Example 68, N-(5-benzyl-4-phenyl-1,3-thiazol-2-yl)-4-(3,4-dihydro-2H-1,5-benzodioxepin-7-yl)-4-oxobutanamide] showed an IC50 of 10 to 50 nM.
Compound CCOc1ccc(C(=O)CCC(=O)Nc2cc(-c3ccccc3)c(Cc3ccccc3)s2)cc1Br [Example 98, N-(5-benzyl-4-phenyl-2-thienyl)-4-(3-bromo-4-ethoxyphenyl)-4-oxobutanamide] has an IC50 of 50 to 500 nM.
CCCCCC/C=C/c1cc(NC(=O)CCC(=O)c2ccc3c(c2)CCO3)nc(-c2ccccc2)c1 [Example 184, 4-(2,3-dihydro-1-benzofuran-5-yl)-N-{4-[(1E)-octa-1-en-1-yl]-6-phenylpyridin-2-yl}-4-oxobutanamide] was tested, and the IC50 was 500 to 10000 nM.
CCOc1ccc(C(=O)CCC(=O)Nc2cc(-c3ccccc3)c3ccc(/C=C/C(=O)OC(C)(C)C)cc3n2)cc1OCC [Example 82, tert-butyl (2E)-3-(2-{[4-(3,4-diethoxyphenyl)-4-oxobutanoyl]amino}-4-phenylquinoline-7-yl)acrylate] was tested, and the IC50 was 50 to 500 nM.
CCOc1ccc(C(=O)CCC(=O)Nc2cc(-c3ccc(C4CCCCC4)cc3)cc(-c3ccccc3)n2)cc1OCC [Example 110, N-[4-(4-cyclohexylphenyl)-6-phenylpyridin-2-yl]-4-(3,4-diethoxyphenyl)-4-oxobutanamide] gave an IC50 of 500 to 10000 nM.
Compound CCOc1ccc(C(=O)CCC(=O)Nc2cc(-c3cnn(C)c3)cc(-c3ccccc3)n2)cc1OCC [Example 119, 4-(3,4-diethoxyphenyl)-N-[4-(1-methyl-1H-pyrazol-4-yl)-6-phenylpyridin-2-yl]-4-oxobutanamide] has an IC50 of 50 to 500 nM.
